{
  "source": "patent US20220338465A1",
  "about": "“FLUIDIC PLATFORMS FOR PERFUSABLE VASCULARIZED TISSUES” (Massachusetts Institute of Technology, priority 2021, published 2022)",
  "key": {"MMP-3": {"target": "MMP-3 (Homo sapiens, UniProt P08254)", "sequence (P08254 100-477)": "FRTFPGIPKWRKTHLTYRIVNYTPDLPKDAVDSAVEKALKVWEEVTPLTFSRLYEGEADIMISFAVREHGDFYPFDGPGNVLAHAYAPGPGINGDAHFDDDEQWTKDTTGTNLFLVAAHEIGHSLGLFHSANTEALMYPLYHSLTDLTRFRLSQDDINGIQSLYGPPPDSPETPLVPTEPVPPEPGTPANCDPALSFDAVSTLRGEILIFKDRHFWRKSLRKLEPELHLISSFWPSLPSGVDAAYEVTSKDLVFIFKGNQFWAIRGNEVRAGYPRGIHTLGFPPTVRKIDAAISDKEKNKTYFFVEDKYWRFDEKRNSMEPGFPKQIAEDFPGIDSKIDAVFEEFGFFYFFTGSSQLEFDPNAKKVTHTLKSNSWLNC", "details": "cited from earlier work"}, "HUVEC monoculture": {"test_system": "HUVEC monoculture", "assay": "Inhibitory tests on MVN formation by HUVEC monoculture in fibrin gel under IF, single channel device", "type": "cell-based, human", "protocol": "(§1) FIGS. 8A-8E are graphs showing that IF enhances the vasculogenesis ability of EC through upregulation of MMP-2. MVN was formed statically with HUVEC monoculture in 3-channel device MVN was formed with HUVEC monoculture in single channel device under IF induced by 10 mm H2O pressure difference, or with various inhibitors added: 100 μM PAI-1, 200 U/ml aprotinin, 50 μM marimast, 50 μM NSC 405020, 100 μg/ml MMP-1 neutralizing antibody and 100 μg/ml control antibody. Samples were pooled at day 3. n=3 FIGS. 8A-8D are graphs showing the statistical analysis of morphological parameters and perfusability of perfusable vessels cultured with various concentration of ARP-100. IF induced by 10 mm H2O pressure difference were applied to all cases. n=5 devices for control, n=3 devices for each inhibitor treated group. Significance was calculated with two sample t tests. ***P<0.01. FIG. 8E is a graph of vascular permeability measurements of 40 kDa dextran for perfusable MVNs formed under various conditions. n=3 devices for each group, 3 measurements were performed in each device at different ROIs.\n(§2) Green fluorescent protein (“GFP”) tagged human umbilical vein endothelial cells (HUVECs) and human lung fibroblasts (HLFs) were seeded in a 7:1 ratio for all static and IF experiments. Devices were imaged under confocal microscopy with dextran dye perfused at day 6, when MVN were interconnected and perfusable. Devices were seeded with HUVECs and HLFs in combination and HUVECs alone.\n(§3) Perfusability is a crucial factor when evaluating the quality of engineered MVN, since the major function of vessels is to transport nutrients, oxygen, metabolic wastes and various cells through perfusable lumens. Perfusability is measured as the ratio between dextran dye cover area (perfusable vessels) and GFP HUVEC cover area (all the vessels). […] To better interpret perfusability, MVN with at least one perfusable vessels across the gel region is defined as partially perfusable, and MVN with perfusability over 80% is defined as fully perfusable.\nHUVEC monoculture of the same concentration were also seeded in single channel devices of FIG. 5B and subjected to IF.\nCulture media was also supplemented with high concentration (100 uM) plasminogen activator inhibitor-1, which inhibits both uPA and tPA, or aprotinin, which inhibits plasmin.\nARP-100 (IC50 values are 12, 200, 4500, >50000 and >50000 nM for MMP-2, -9, -3, -1, -7, respectively) and NSC 405020 (selective inhibitor of the collagenolytic activity of MT1-MMP without affecting the catalytic activity of cellular MT1-MMP) were tested as specific inhibitors for MMP-2 and MMP-14. 14. High concentrations of anti-MMP-1 neutralizing antibody were used to inhibit MMP-1 activity"}, "MMP-1": {"target": "T1, MMP-1 (Homo sapiens, UniProt P03956)", "T1 sequence (P03956 100-469)": "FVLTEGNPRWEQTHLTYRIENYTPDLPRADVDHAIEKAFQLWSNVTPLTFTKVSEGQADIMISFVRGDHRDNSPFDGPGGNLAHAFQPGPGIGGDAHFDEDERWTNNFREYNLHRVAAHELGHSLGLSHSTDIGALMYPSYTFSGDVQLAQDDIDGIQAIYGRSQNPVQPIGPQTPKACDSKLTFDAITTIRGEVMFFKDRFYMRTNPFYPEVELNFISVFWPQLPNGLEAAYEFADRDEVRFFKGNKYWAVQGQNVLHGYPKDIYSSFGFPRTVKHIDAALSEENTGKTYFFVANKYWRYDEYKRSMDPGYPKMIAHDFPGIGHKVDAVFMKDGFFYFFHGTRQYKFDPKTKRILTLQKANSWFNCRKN", "details": "cited from earlier work"}, "HUVEC and HLF coculture": {"test_system": "HUVEC and HLF coculture", "assay": "MVN formation by HUVEC and HLF coculture under IF with MMP-2 inhibitor", "type": "cell-based, human", "details": "20 uM", "protocol": "FIGS. 10A-10D are graphs showing that IF enhances formation of fully perfusable microvascular network made by HUVEC and HLF. FIGS. 10A-10D are Statistical analysis of morphological parameters and perfusability of perfusable vessels cultured with various concentration of ARP-100. n=6 devices for control, n=3 devices for each inhibitor treated group. Significance was calculated with two sample t tests. ***P<0.01.\nas §2, §3"}, "[1]": {"test_system": "primary human brain endothelial cells (BECs), brain pericytes, and astrocytes", "assay": "BBB MVN formation under IF with MMP-2 specific inhibitor", "type": "cell-based", "protocol": "BBB MVN were formed, consisting of primary human brain endothelial cells (BECs), brain pericytes, and astrocytes.\nTriculture were then seeded into single channel devices and grown under IF.\nAll MVN tissues were immunstained and studied for histology and morphology. Quantitative PCR was also performed to measure MMP-2 levels. The effect of a MMP-2 specific inhibitor was also tested in the BBB model to antagonize the effect induced by IF, as observed in MVNs formed with HUVEC monoculture or HUVEC and HLF co-culture."}, "MMP-7": {"target": "T2, MMP-7 (Homo sapiens, UniProt P09237)", "T2 sequence (P09237 95-267)": "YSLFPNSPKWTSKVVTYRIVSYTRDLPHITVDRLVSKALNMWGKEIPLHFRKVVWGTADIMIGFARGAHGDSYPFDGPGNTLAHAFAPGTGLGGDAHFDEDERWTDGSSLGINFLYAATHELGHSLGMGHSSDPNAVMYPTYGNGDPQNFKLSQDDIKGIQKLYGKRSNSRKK", "details": "cited from earlier work"}, "MMP-9": {"target": "MMP-9 (Homo sapiens, UniProt P14780)", "sequence (P14780 94-707)": "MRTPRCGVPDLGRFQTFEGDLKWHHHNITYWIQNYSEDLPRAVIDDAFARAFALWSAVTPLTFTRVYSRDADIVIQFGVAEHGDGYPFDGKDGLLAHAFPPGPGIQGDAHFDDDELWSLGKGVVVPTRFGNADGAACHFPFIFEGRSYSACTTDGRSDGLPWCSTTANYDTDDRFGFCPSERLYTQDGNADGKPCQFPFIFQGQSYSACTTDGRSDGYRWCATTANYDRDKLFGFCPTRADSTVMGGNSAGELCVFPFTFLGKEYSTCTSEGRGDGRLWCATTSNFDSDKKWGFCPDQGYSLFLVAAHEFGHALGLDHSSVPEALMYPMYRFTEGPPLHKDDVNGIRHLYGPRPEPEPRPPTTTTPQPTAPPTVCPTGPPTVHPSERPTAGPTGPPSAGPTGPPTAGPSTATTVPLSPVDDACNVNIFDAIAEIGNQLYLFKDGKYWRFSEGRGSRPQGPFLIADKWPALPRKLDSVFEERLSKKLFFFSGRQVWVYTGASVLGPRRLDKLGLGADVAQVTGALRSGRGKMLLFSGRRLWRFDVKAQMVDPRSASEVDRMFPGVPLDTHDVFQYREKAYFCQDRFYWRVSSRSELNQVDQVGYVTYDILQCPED", "details": "read-out: IC50 for MMP-9; cited from earlier work"}, "[2]": {"test_system": "MVN formed by HUVEC monoculture", "assay": "Vascular permeability of 40 kDa dextran in perfusable MVN", "type": "cell-based, human", "details": "HUVEC monoculture with 10 μM inhibitor under IF", "protocol": "as §1, with “FIG. 8E is a graph of vascular permeability measurements of 40 kDa dextran for perfusable MVNs formed under various conditions. n=3 devices for each group, 3 measurements were performed in each device at different ROIs.” left out\nIn summary, MVN formed without supporting cells tends to be leakier. Since vascular permeability is a critical aspect of functionality of engineered MVN, vascular permeability of 40 kD dextran was measured and compared under various conditions where perfusable vessels can be robustly formed. […] Moreover, all the measurements were in the order of 10^−8 cm/s, which are quite low for vascular permeability measured using 40 kDa dextran. […]"}, "MMP-2": {"target": "T3, MMP-2 (Homo sapiens, UniProt P08253)", "T3 sequence (P08253 110-660)": "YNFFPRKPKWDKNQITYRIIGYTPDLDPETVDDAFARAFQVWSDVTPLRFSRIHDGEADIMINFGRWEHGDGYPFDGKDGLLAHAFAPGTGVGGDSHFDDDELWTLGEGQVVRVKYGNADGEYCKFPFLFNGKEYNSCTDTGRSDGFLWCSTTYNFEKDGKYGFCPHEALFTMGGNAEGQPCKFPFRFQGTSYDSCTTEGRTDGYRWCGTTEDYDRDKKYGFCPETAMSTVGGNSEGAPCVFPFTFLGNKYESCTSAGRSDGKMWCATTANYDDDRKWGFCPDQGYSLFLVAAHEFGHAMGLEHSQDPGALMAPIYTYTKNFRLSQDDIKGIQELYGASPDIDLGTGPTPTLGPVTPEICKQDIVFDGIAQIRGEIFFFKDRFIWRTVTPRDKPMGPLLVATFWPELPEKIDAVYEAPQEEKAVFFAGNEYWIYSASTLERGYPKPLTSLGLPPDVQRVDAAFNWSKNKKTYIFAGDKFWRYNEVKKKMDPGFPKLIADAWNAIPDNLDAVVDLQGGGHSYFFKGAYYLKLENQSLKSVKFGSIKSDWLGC", "details": "cited from earlier work"}},
  "note": "“Also recorded” adds a separate entry of the source.",
  "data": [
    {"compound": "CC(C)ON(CC(=O)NO)S(=O)(=O)c1ccc(-c2ccccc2)cc1", "note": "[ARP-100]", "values": [
      {"measurement": "IC50", "setting": "MMP-3", "value": 4500, "unit": "nM"},
      {"measurement": "MVN morphology (vessel diameter, coverage area, branches)", "setting": "HUVEC monoculture; 10 μM", "value": "significantly narrower vessels, reduced coverage area and increased branches; also recorded: effectively reduced the average diameter and coverage area of vessels"},
      {"measurement": "perfusability of MVN", "setting": "HUVEC monoculture; 10 μM, in comparison with control group", "value": "perfusability well maintained"},
      {"measurement": "perfusion of MVN with dextran dye", "setting": "HUVEC monoculture; 20 μM", "value": "no vessels can be successfully perfused with dextran dye"},
      {"measurement": "network structure development", "setting": "HUVEC monoculture; 50 uM, day 5", "value": "complete failure in developing network structure"},
      {"measurement": "IC50", "setting": "MMP-1", "value": "> 50000", "unit": "nM"},
      {"measurement": "perfusability of MVN", "setting": "HUVEC and HLF coculture", "value": "can maintain high perfusability"},
      {"measurement": "BBB network vessel morphology", "setting": "[1]; day 3, 20 uM compared with 10 μM", "value": "thinner and sparser vessels"},
      {"measurement": "BBB network perfusability and morphology", "setting": "[1]; day 6, higher concentration (20 uM)", "value": "disconnected thin network segments without any perfusable vessels"},
      {"measurement": "BBB network perfusability and morphology", "setting": "[1]; day 6, low concentration (10 μM)", "value": "became perfusable with much thinner vessels compared to untreated ones"},
      {"measurement": "IC50", "setting": "MMP-7", "value": "> 50000", "unit": "nM"},
      {"measurement": "IC50", "setting": "MMP-9", "value": 200, "unit": "nM"},
      {"measurement": "vascular permeability of 40 kD dextran", "setting": "[2]", "value": "~10^−8 cm/s"},
      {"measurement": "IC50", "setting": "MMP-2", "value": 12, "unit": "nM"}
    ]},
    {"compound": "CCCC(C)NC(=O)c1ccc(Cl)c(Cl)c1", "note": "(stereo not drawn) [NSC 405020]", "values": [
      {"measurement": "changes in formed MVN", "setting": "HUVEC monoculture; 50 μM", "value": "didn't induce any noticeable changes in formed MVN"}
    ]},
    {"compound": "CNC(=O)[C@@H](NC(=O)[C@H](CC(C)C)[C@H](O)C(=O)NO)C(C)(C)C", "note": "[marimast]", "values": [
      {"measurement": "vessel formation", "setting": "HUVEC monoculture; 50 μM, 5 days", "value": "completely disrupted the vessel formation process"}
    ]},
    {"compound": "aprotinin", "values": [
      {"measurement": "development of fully perfusable MVN", "setting": "HUVEC monoculture; 200 U/ml in culture media", "value": "did not affect the development of fully perfusable MVN"}
    ]},
    {"compound": "plasminogen activator inhibitor-1", "values": [
      {"measurement": "development of fully perfusable MVN", "setting": "HUVEC monoculture; 100 uM in culture media", "value": "did not affect the development of fully perfusable MVN"}
    ]}
  ]
}
